The assay concerns S. epidermidis. As to the kind of experiment: bacterial respiration of S. epidermidis suspension in microplate. Type of assay: cell-based. Conditions: lactam pre-blended with hydrotrope, added to remainder of composition, diluted to 11.5 ppm and 0.575 ppm; 20 hours. The procedure: Test samples were diluted in sterile water to achieve a 11.5 ppm level of lactam. Dilute solution (80 μl) was added to a S. epidermidis suspension (20 μl) of bacteria at a concentration of 8 logs in a microplate. Growth media (100 μl tryptone soya broth) was added to each well of the microplate and incubated for 20 hours. Bacterial respiration was measured every 30 minutes and the results were: • A—lactam+hydrotrope only (respiration of surviving bacteria detected ˜4-5 h) • B—lactam added directly to base formulation (which contains MPG)—no pre-mixing prior to addition (respiration of surviving bacteria detected 4-5 hrs) • C—lactam pre-mixed with hydrotrope and then added to base formulation (respiration of surviving bacteria not detected—20 hrs is max detection time) • D—hydrotrope added to base formulation (respiration of surviving bacteria detected 3-4 hrs). The example below is from data obtained when pre-blending lactams with hydrotrope before adding to the remainder of the composition, and diluting to 11.5 ppm and 0.575 ppm in sterile water in order to assess efficacy against S. epidermidis suspension Dilute solution (80 μl) was added to a S. epidermidis suspension (20 μl) of bacteria at a concentration of 8 logs in a microplate. Growth media (100 μl tryptone soya broth) was added to each well of the microplate and incubated for 20 hours. Bacterial respiration was measured every 30 minutes. Data of the test samples were then compared to un-treated cell suspensions (sterile water added instead of test samples) and percent inhibition calculated.

For the compound `C=C1NC(=O)CC1c1ccccc1F` (centres unmarked) [5-methylene-4-(2′-fluorophenyl)-dihydropyrrol-2-one], the “Result (inhibition of bacterial respiration versus water control)” value was determined as 79.4%.
The value for `C=C1NC(=O)C=C1c1ccc(Br)cc1` [5-methylene-4-(4′-bromophenyl)-dihydroprrol-2-one] was 82.5%.

The values are drawn from patent publication US9930888B2, “Composition” (Conopco, Inc., priority 2013, dated 2018).
